# Reference: US10251884B2, “Treatment of cancer and benign proliferative disorders” (The University of Manchester, priority 2013, dated 2019)
# Marks after values point to notes of the source that are not given here.
# What was measured:
# HeLa cells = test: Apoptosis by V450 Annexin V / propidium iodide flow cytometry; type: cell-based
# Source text: Staining with V450 Annexin V (BD Biosciences) was used to analyse the percentage of cells within a population that are actively undergoing apoptosis. Propidium Iodide (PI) is a standard DNA-staining flow cytometric viability probe and is used to distinguish viable from nonviable cells. Cells that stain positive for V450 Annexin V and negative for PI are undergoing apoptosis. Cells that stain positive for both V450 Annexin V and PI are either in the end stages of apoptosis, are undergoing necrosis, or are already dead. Cells that stain negative for both V450 Annexin V and PI are alive and not undergoing measurable apoptosis.
# For this reason these cells were chosen to evaluate the effects of these compounds on cell death. A 2 ml aliquot of growth medium containing 20,000 cells was seeded into each well of a 6 well plate. […] The growth medium was removed and retained and the cells washed with PBS followed by Incubation with 1 ml of Accutase (Life Technologies, Paisley, UK, Catalog Number A11105-01) per well for 15 mins. The original growth medium was then added back to neutralise the Accutase, and this centrifuged at 1,200 rpm for 5 mins to pellet the cells and this repeated twice with cold PBS. The cell pellet was finally re-suspended in 1× binding buffer (10×=0.1 M Hepes (pH 7.4), 1.4 M NaCl, 25 mM CaCl2) at a concentration of 10^6 cell/ml. A 100 μl aliquot containing 10^5 cells was removed and placed in a 5 ml culture tube and 5 μl of V450 Annexin V added plus 10 μl PI (50 μg/ml) added. The cells were gently mixed and incubated at room temperature for 15 min in the dark then 400 μl of 1× binding buffer was added prior to being analysed by flow cytometry using a Cyan ADP instrument (Beckman Coulter) and Summit software within one hour of the above procedure. The Annexin fluorochrome was excited using a 405 nm laser and the emission measured using a 450/50 nm bandpass filter. The PI was excited using a 488 nm laser and the emission detected using a 613/20 nm bandpass filter. The data was gated to select single cells using a plot of forward scatter against pulse width, and to exclude debris using forward scatter plotted against side scatter. All cytometry assays shown were the result of three separate cultures and intra-assay variability was also assessed by repeating the same drug treatment assay (1:1 Lop/Rit) three times. Unstained cells and cells stained separately with either V450 Annexin V or PI were used as controls to optimise compensation and gating of the cytometer.
# [1] = cited from earlier work
# CIN and HPV infections = settings: cited from earlier work
# SiHa cells = test: CellTitre 96 AQ colorimetric cell growth assay; type: cell-based; settings: 5 μM, 0-72 hours
# Procedure: SiHa cells were grown in RPMI plus 10% FBS and HeLa in DMEM plus 10% FBS. These were seeded at 2000 cells/well for HeLa and 5000 cells/well for SiHa in triplicate into standard tissue culture grade 96 well plates and incubated overnight at 37° C./5% CO2. […] At each time point 20 μl of CellTitre 96® AQ reagent (Promega) was then added to three separate wells per data point and the absorbance (OD490) read after 1 hour at 37° C. The CellTitre 96® AQ reagent is a water soluble MTS formazan version of the well-known MTT reagent which produces a colorimetric readout that is directly proportional to the number of viable cells present.
# [2] = tested on: pre-invasive cells derived from the cervix; settings: cited from earlier work
# glioma = settings: ritonavir alone; cited from earlier work
# [3] = tested on: more advanced invasive cervical disease; settings: cited from earlier work
# CIN2 lesions = settings: young women aged 18-29; topical, physician applied, 16 weeks; cited from earlier work
# HPV infection = settings: hybrid capture 2 assay; cited from earlier work
# CIN2/3 = settings: topical application; cited from earlier work
structure (smiles),measurement,setting,value
"Cc1cccc(C)c1OCC(=O)N[C@@H](Cc1ccccc1)[C@@H](O)C[C@H](Cc1ccccc1)NC(=O)[C@H](C(C)C)N1CCCNC1=O (relative stereo) [lopinavir, [1S-[1R*(R*), 3R*, 4R*]]—N-[4-[(2,6-dimethylphenoxy0acetyl]amino]-3-hydroxy-5-phenyl-1-(phenylmethyl)pentyl]tetrahydro-alpha-(1-methylethyl)-2-oxo-1 (2H)-pyrimidineacetamide]","R4 gate Mean (percentage of cells in quadrant R4, late stage apoptosis)","HeLa cells; 48 hrs, total dose 25 μM, concentrations (μM) in the label",21.8000%
same,"Mean Difference to DMSO, R4 gate (Dunnett t)","HeLa cells; 48 hrs, versus DMSO control",15.38*
same,level of apoptosis compared between treatments (FIG. 13),"HeLa cells; total dose 25 μM, R4 and R6+R4",less effective than any of the combination treatments
same,"Mean Difference, R4 gate (Bonferonni)",HeLa cells; versus Lop20Rit5,−13.45*
same,solubility in water,[1],virtually insoluble in water
CC(C)Cn1cnc2c(N)nc3ccccc3c21 [Imiquimod],effect against CIN and HPV infections,"CIN and HPV infections; before and after LEEP, treatment >8 weeks",some effect
same,side effects,CIN and HPV infections; direct application to the cervix,quite severe
"CC(C)c1nc(CN(C)C(=O)N[C@H](C(=O)N[C@@H](Cc2ccccc2)C[C@H](O)[C@H](Cc2ccccc2)NC(=O)OCc2cncs2)C(C)C)cs1 (relative stereo) [ritonavir, 10-Hydroxy-2-methyl-5-(1-methylethl)-1-[2-(1-methylethyl)-4-thiazolyl]-3,6-dioxo-8, 11bis(phenylmethyl)-2,4,7,12-tetraazatridecan-13-oic acid, 5-thiazolylmethylester, [5S-(5R*,8R*,10R8,11R*)]]",effect on cell growth (OD490),SiHa cells,no effect
same,activity against pre-invasive cells derived from the cervix,[2],has shown activity
same,effect against glioma in vivo,glioma,no effect
same,efficacy against more advanced invasive cervical disease,[3],not effective
O=c1[nH]cc(F)c(=O)[nH]1 [5FU],effective against CIN2 lesions,CIN2 lesions,> 90%
Nc1ccn(C[C@@H](CO)OCP(=O)(O)O)c(=O)n1 [Cidofovir],elimination of HPV infection,HPV infection,did not eliminate HPV infection
same,clearance of CIN,CIN2/3,~60%
